This test relates to rSARS-COV-2/YS006_Nluc P2 virus (YS006_spike). The class given is cell-based, SARS coronavirus 2.

On to `CC(C)(C)[C@H](NC(=O)C(F)(F)F)C(=O)N1C[C@H]2[C@@H]([C@H]1C(=O)N[C@H](C#N)C[C@@H]1CCNC1=O)C2(C)C` [PF-07321332], for which the “antiviral activity against YS006_spike reporter virus” value is given as “high antiviral activity”. The “inhibitory effect compared among cell lines” value (A549_ACE2 cells versus Calu-3 and Vero E6, FIG. 6B) was “strongest inhibitory effect”.

For the origin of these results see patent publication US20260071190A1, “SARS CORONAVIRUS 2 R[…] […] GENES, DERIVED FROM GH CLADE SARS CORONAVIRUS 2 OF KOREAN ISOLATE, AND THE PRODUCTION METHOD THEREFOR” (RpexBio, Inc., priority 2022, published 2026).
